“And” between values parts separate entries of the source, which are not always exact repeats. Identical values can stand only once. “Also recorded” adds a separate entry of the source.
Legend:
C. suis merozoites = assay: Merozoite replication (growth) inhibition in infected IPEC-1 cultures, free merozoites counted 9 dpi; format: cell-based, Cystoisospora suis; conditions: for Decrease of total merozoite counts: 400 nM once at 2 dpi, vs DMSO-only and no-treatment controls; for Merozoite replication at 9 dpi: 50 nM, P < 0.05 vs DMSO-only and no-treatment
Description: (§1) The laboratory strain C. suis Wien I ([Joachim and Mundt, 2011]), was maintained by passage in suckling piglets every 3–6 months and infectivity in vivo was assessed regularly at the Institute of Parasitology, University of Veterinary Medicine, Vienna. Oocysts were purified from collected feces, brought to sporulation and stored as described elsewhere ([Worliczek et al., 2013]). For in vitro studies, sporozoites were excysted ([Worliczek et al., 2013]), enumerated with a hemocytometer and used immediately for infection of semi-permanent intestinal porcine epithelial cells (IPEC-1). For in vivo studies, sporulated oocysts were washed with tap water and enumerated prior to infection of piglets.
IPEC-1 cells were maintained in culture medium at 37 °C and 5% CO2 (DHEM/HAM12 supplemented with 5% fetal calf serum and penicillin/streptomycin; Gibco via Thermo Fisher, Vienna, Austria). Cells (4 × 10^4) were used to seed 24-well plates and grown to confluence. All BKI compounds were stored as 20 mM stock solutions in 100% dimethyl sulfoxide (DMSO) at −20 °C. Cell viability in the presence of DMSO and BKIs was determined by colorimetric cell proliferation (WST-1) assays ([Shrestha et al., 2019]). In addition IPEC-1 cells were infected with serial dilutions of C. suis sporozoites, obtained after excystation to evaluate the growth curves of merozoites during 5–9 days of cultivation. To determine the effect of BKI 1369 on parasite replication, sporozoites (5 × 10^2) were added to each well one day after seeding of host cells and incubated with different concentrations of BKI 1369 at 40 °C for various time periods or a DMSO control, in triplicate.
(§2) In order to test whether BKI 1369 affects initial host cell invasion by C. suis, freshly excysted sporozoites were pre-incubated with BKI 1369 or DMSO for 6 h at 37 °C. Subsequently, sporozoites were washed with medium and used for infection of cell monolayers (5 × 10^2/well), in triplicate. Readout for both growth (merozoite replication) and invasion-inhibition experiments was microscopical evaluation by counting free merozoites 9 days post-infection (dpi) from culture supernatants. Supernatants were collected and free merozoites were counted in pooled samples at 9 dpi from quadruplicate wells in C-Chip disposable hemocytometers (NanoEnTek/Roth Lactan, Graz, Austria). All assays included DMSO and no-treatment controls in quadruplicate.
Statistical calculations for in vivo trials were performed with RStudio version 1.1.453 (RStudio Team, 2018), descriptive statistics with Microsoft Excel 2010 (Microsoft Inc., Vienna, Austria) and GraphPad Prism version 5.04 for Windows (GraphPad Software, San Diego, California USA). Differences in clinical and parasitological parameters between groups were analyzed with ANOVA in the case of normal distribution and variance homogeneity of the data, or a Kruskal-Wallis rank sum test if this was not the case. In the event of significance for the omnibus tests, parametric or non-parametric post-hoc tests for multiple comparisons were performed (according to Tukey and Conover, respectively), with P-value adjustment after Bonferroni. In vitro assays were evaluated by t-tests with significance reported at P < 0.05. For testing of efficacy in vitro, the percentage of growth/invasion inhibition was calculated as follows: % inhibition = (1−No. of merozoites counted at 9 dpi in BKI 1369 treated culture /No. of merozoites counted at 9 dpi in DMSO-only treated culture)x100

C. suis (strain Wien-I) [1] = assay: Fecal score and diarrhea of experimentally infected suckling piglets; format: in vivo, Cystoisospora suis
[2] = Post-treatment observations for adverse events; format: in vivo, piglets
Description: For both experiments, post-treatment observations for any adverse events such as swelling/bleeding of the iron injection site, inability to stand, walk, suckle or other abnormal behavior, including dyspnoea, vomiting, limping, lateral recumbency, signs of pain, distress or neurological alterations ([Oldham, 1985]), were conducted under blinded conditions by a veterinarian at 2 h, 24 h and 48 h after treatment. In addition, all piglets were observed daily during the course of the studies to ensure good health, and any condition that required veterinary intervention was recorded and addressed.

C. suis sporozoites = assay: Invasion inhibition: sporozoites pre-incubated with BKI 1369, free merozoites counted 9 dpi in IPEC-1 cultures; format: cell-based, Cystoisospora suis
Description: as §1
IPEC-1 cells were maintained in culture medium at 37 °C and 5% CO2 (DHEM/HAM12 supplemented with 5% fetal calf serum and penicillin/streptomycin; Gibco via Thermo Fisher, Vienna, Austria). Cells (4 × 10^4) were used to seed 24-well plates and grown to confluence. […] Cell viability in the presence of DMSO and BKIs was determined by colorimetric cell proliferation (WST-1) assays ([Shrestha et al., 2019]). […]
as §2, with “Subsequently, sporozoites were washed with medium and used for infection of cell monolayers (5 × 10^2/well), in triplicate.” left out, “All assays included DMSO and no-treatment controls in quadruplicate.” left out
Statistical calculations for in vivo trials were performed with RStudio version 1.1.453 (RStudio Team, 2018), descriptive statistics with Microsoft Excel 2010 (Microsoft Inc., Vienna, Austria) and GraphPad Prism version 5.04 for Windows (GraphPad Software, San Diego, California USA). […] In vitro assays were evaluated by t-tests with significance reported at P < 0.05. […]

C. suis (strain Wien-I) [3] = assay: Oocyst excretion of experimentally infected suckling piglets (autofluorescence, modified McMaster); format: in vivo, Cystoisospora suis; conditions: for Start of oocyst excretion (study day): controls started SD 8
[4] = Exp I group A: 1 × 20 mg/kg BW oral, SD 3 (0 dpi)
[5] = Exp I group B: 1 × 20 mg/kg BW oral, SD 5 (2 dpi)
[6] = Exp I group C: 2 × 20 mg/kg BW oral, SD 5 & SD 7 (2 & 4 dpi)
[7] = Exp II group W: 1 × 20 mg/kg BW oral, SD 5 (2 dpi)
[8] = Exp II group X: 1 × 10 mg/kg BW oral, SD 5 (2 dpi)
[9] = Exp II group Y: 1 × 5 mg/kg BW oral, SD 5 (2 dpi)
[10] = single treatment 20 mg/kg BW 2 dpi
[11] = single treatment 20 mg/kg BW on the day of infection

CCOc1ccc2cc(-c3nn(CC4CCNCC4)c4ncnc(N)c34)ccc2n1 [BKI 1318]
Decrease of total merozoite counts (C. suis merozoites): 85.1%

CCOc1ccc2cc(-c3nn(CC4CCN(C)CC4)c4ncnc(N)c34)ccc2n1 [BKI 1369]
Merozoite replication at 9 dpi (C. suis merozoites; incubation 0–3 dpi): significantly inhibited merozoite replication
Merozoite replication at 9 dpi (C. suis merozoites; incubation 3–6 dpi): significantly inhibited merozoite replication
Decrease of total merozoite counts (C. suis merozoites): 96.1%
Concentrations giving significant reduction of merozoite replication at 9 dpi (C. suis merozoites; single application 2 dpi): ≥ 200 nM
% piglets with diarrhea at least once (C. suis (strain Wien-I) [1]; [4]): 60%
Number of diarrhea days ± SD (C. suis (strain Wien-I) [1]; [4]): 1.4 ± 1.71 days
% piglets with diarrhea at least once (C. suis (strain Wien-I) [1]; [5]): 18.18%
Number of diarrhea days ± SD (C. suis (strain Wien-I) [1]; [5]): 0.27 ± 0.65 days
% piglets with diarrhea at least once (C. suis (strain Wien-I) [1]; [6]): 27.27%
Number of diarrhea days ± SD (C. suis (strain Wien-I) [1]; [6]): 0.45 ± 0.93 days
Mean FS and diarrhea days compared to control piglets (in words) (C. suis (strain Wien-I) [1]; Exp I: single dose 20 mg/kg BW at 2 dpi): significantly lower mean FS and fewer diarrhea days
Effect on diarrhea (in words) (C. suis (strain Wien-I) [1]; Exp I: single dose of 20 mg/kg BW on the day of infection): failed to reduce occurrence of diarrhea
Mean FS and diarrhea days compared to control piglets (in words) (C. suis (strain Wien-I) [1]; Exp I: two doses 20 mg/kg BW at 2 and 4 dpi): significantly lower mean FS and fewer diarrhea days
% piglets with diarrhea at least once (C. suis (strain Wien-I) [1]; [7]): 10%
Number of diarrhea days ± SD (C. suis (strain Wien-I) [1]; [7]): 0.2 ± 0.63 days
% piglets with diarrhea at least once (C. suis (strain Wien-I) [1]; [8]): 40%
Number of diarrhea days ± SD (C. suis (strain Wien-I) [1]; [8]): 0.5 ± 0.70 days
% piglets with diarrhea at least once (C. suis (strain Wien-I) [1]; [9]): 77.80%
Number of diarrhea days ± SD (C. suis (strain Wien-I) [1]; [9]): 2.6 ± 1.88 days
Effect on diarrhea (in words) (C. suis (strain Wien-I) [1]; Exp II: 5 mg/kg BW at 2 dpi): completely failed to control diarrhea
Effect on diarrhea (in words) (C. suis (strain Wien-I) [1]; Exp II: 10 mg/kg BW at 2 dpi): effectively suppressed diarrhea
Effect on diarrhea (in words) (C. suis (strain Wien-I) [1]; Exp II: 20 mg/kg BW at 2 dpi): effectively suppressed diarrhea
Number of diarrhea days compared to control piglets (in words) (C. suis (strain Wien-I) [1]; irrespective of time points and frequencies of treatment): reduced number of diarrhea days
Treatment-related adverse effects that required veterinary intervention ([2]; 5, 10 or 20 mg/kg BW, one or two oral doses, whole study period): No piglets showed treatment-related adverse effects; also recorded: without any adverse effects
Visible signs of toxicity, clinically relevant systemic or regional/local responses related to treatment ([2]; treated groups, both experiments): Neither visible signs of toxicity nor clinically relevant systemic or regional/local responses related to treatment were observed
Pre-incubation concentrations that significantly reduced total merozoite counts at 9 dpi (C. suis sporozoites; sporozoites pre-incubated 6 h at 37 °C, washed, IPEC-1, P < 0.05 vs DMSO-only and no-treatment): ≥ 200 nM
Pre-incubation concentrations that completely failed to inhibit host cell invasion (C. suis sporozoites; sporozoites pre-incubated 6 h at 37 °C, washed, IPEC-1, vs DMSO-only and no-treatment): ≤ 100 nM
Inhibition of infection in vitro by pre-incubation of sporozoites (C. suis sporozoites; unless treatment was prolonged post-infection): completely failed to inhibit the infection
Start of oocyst excretion (study day) (C. suis (strain Wien-I) [3]; Exp I group A: 1 × 20 mg/kg BW day of infection): 11 SD
Mean AUC for OpG (C. suis (strain Wien-I) [3]; [4]): 4861.8
Number of excretion days ± SD (mean duration of oocyst excretion) (C. suis (strain Wien-I) [3]; Exp I group A: 1 × 20 mg/kg BW oral, SD 3 (0 dpi), 20 mg/kg): 1 ± 1.6 days and 1 ± 1.56 days
Piglets that excreted oocysts (C. suis (strain Wien-I) [3]; Exp I group A: 1 × 20 mg/kg BW, day of infection): 50%
Number of piglets that excreted oocysts (C. suis (strain Wien-I) [3]; Exp I group B: 1 × 20 mg/kg BW 2 dpi, 11 piglets): two
Start of oocyst excretion (study day) (C. suis (strain Wien-I) [3]; Exp I group B: 1 × 20 mg/kg BW 2 dpi): 16 SD
Mean AUC for OpG (C. suis (strain Wien-I) [3]; [5]): 333
Number of excretion days ± SD (C. suis (strain Wien-I) [3]; [5]): 0.45 ± 1.03 days
Oocyst excretion (in words) (C. suis (strain Wien-I) [3]; Exp I group C: two doses of 20 mg/kg BW at 2 and 4 dpi, 20 mg/kg): completely suppressed oocyst excretion
Number of piglets that excreted oocysts (C. suis (strain Wien-I) [3]; Exp II group W: 1 × 20 mg/kg BW 2 dpi, 10 piglets, excreted only once on SD 16): one
Mean AUC for OpG (C. suis (strain Wien-I) [3]; [7]): 99.9
Number of excretion days ± SD (C. suis (strain Wien-I) [3]; [7]): 0.1 ± 0.32 days
Oocyst excretion (in words) (C. suis (strain Wien-I) [3]; Exp II group W: single dose of 20 mg/kg BW 2 dpi): effectively suppressed
Mean AUC for OpG (C. suis (strain Wien-I) [3]; [8]): 20129.85
Number of excretion days ± SD (mean duration of oocyst excretion) (C. suis (strain Wien-I) [3]; Exp II group X: 1 × 10 mg/kg BW oral, SD 5 (2 dpi), 10 mg/kg): 1.3 ± 2.7 days and 1.3 ± 2.75 days
Piglets that excreted oocysts (C. suis (strain Wien-I) [3]; Exp II group X: 1 × 10 mg/kg BW, 2 dpi): 50%
Number of piglets that excreted oocysts (C. suis (strain Wien-I) [3]; Exp II group X: single dose of 10 mg/kg BW 2 dpi): 5 out of 10
Mean AUC for OpG (C. suis (strain Wien-I) [3]; [9]): 56610
Number of excretion days ± SD (mean duration of oocyst excretion) (C. suis (strain Wien-I) [3]; Exp II group Y: 1 × 5 mg/kg BW oral, SD 5 (2 dpi), 5 mg/kg): 3.6 ± 1.9 days and 3.6 ± 1.94 days
Piglets that excreted oocysts (C. suis (strain Wien-I) [3]; Exp II group Y: 1 × 5 mg/kg BW, 2 dpi): 90%
Control of parasitic shedding and diarrhea (in words) (C. suis (strain Wien-I) [3]; single application of 5 mg/kg BW 2 dpi): completely failed to control parasitic shedding and diarrhea
Piglets in which oocyst excretion was suppressed (C. suis (strain Wien-I) [3]; [10]): 82%
Reduction of quantitative oocyst excretion in those that shed oocysts (C. suis (strain Wien-I) [3]; [10]): 98.4%
Piglets in which oocyst excretion was suppressed (C. suis (strain Wien-I) [3]; [11]): 50%
Reduction of quantitative oocyst excretion in those that shed oocysts (C. suis (strain Wien-I) [3]; [11]): 95.2%
Minimal effective dose against cystoisosporosis (C. suis (strain Wien-I) [3]; single treatment 2 dpi, piglets): 10 mg/kg BW

Reference: article PMC7442133, “Reduced treatment frequencies with bumped kinase inhibitor 1369 are effective against porcine cystoisosporosis” (International Journal for Parasitology: Drugs and Drug …, 2020)
